Like-named read-outs stand apart in the source and are kept apart here.
Assays:
[1] = tested on: hyperlipidémie provoquée par l'administration de TRITON®; assay: Triton test: hyperlipidemia induced by i.v. TRITON W.R. in fasted rats; type: in vivo, rats WISTAR mâles; conditions: for inhibition in vivo at 250 mg/kg: Rattus norvegicus, po, blood assayed 6 h and/or 24 h later
Description: Dans une première série d'expériences, des produits ont été testés sur une hyperlipidémie provoquée par l'administration de TRITON® selon le protocole suivant.
Les essais ont été réalisés sur des groupes de cinq rats WISTAR mâles dont le poids varie de 150 à 175 g.
Pour effectuer ces essais, on provoque une hyperlipidémie chez les animaux, au moyen du produit commercialisé par la Société ROHM and HAAS sous le nom de TRITON® W. R.
On observe, sur cette hyperlipidémie, les effets obtenus par administration des substances actives selon l'invention.
Les essais sont réalisés comme suit : • les rats sont mis à jeûner pendant 18 heures, puis on administre le TRITON® W.R. par voie intraveineuse en solution aqueuse à 10 % à raison de 200 mg/kg ;
6 heures et/ou 24 heures plus tard, on effectue les dosages sur le sang de façon traditionnelle.
Dans la première colonne, on a indiqué le numéro du composé testé.
Dans la deuxième colonne, on a indiqué le nombre d'animaux qui ont été soumis au test.
Dans les quatre dernières colonnes, on a indiqué les résultats relatifs respectivement : • aux lipides totaux, • aux triglycérides, • au cholestérol total, • au cholestérol estérifié.
Dans chacune de ces colonnes, on indique : • a) le pourcentage de diminution par rapport au témoin TRITON; • b) le score par rapport au clofibrate de référence, c'est-à-dire le rapport de l'intensité de l'activité du produit testé vis-à-vis de celle,de l'activité au clofibrate comptée pour 1.

[2] = tested on: animaux ayant reçu pendant une durée prolongée un régime athéromateux; assay: Atheromatous diet test (cholesterol/cholic acid diet + vitamin D2): biochemical, macroscopic and microscopic examinations; type: in vivo, rats WISTAR femelles
Description: Dans une deuxième série expérimentale, on a testé l'activité de certains produits de l'invention sur des animaux ayant reçu pendant une durée prolongée un régime athéromateux.
L'essai s'effectue sur des rats WISTAR femelles, d'un poids d'environ 160-180 g.
Les animaux reçoivent une alimentation provenant de l'usine d'alimentation nationale de Villemois- son-Sur-Orge, France, et désignée sous la référence UAR A03, enrichie en cholestérol (0,5 %) et en acide cholique (0,5 %).
Après 15 jours de régime athéromateux et tout en maintenant les animaux sous régime athéromateux, on leur administre par voie orale pendant 4 jours 250 000 ui/kg de vitamine D2 commercialisée sous le nom de Stérogyl 25H, en solution dans de l'huile d'olive.
On administre ensuite les produits à étudier pendant 4 semaines, dès la fin de l'administration de l'agent lésionnel.
La quantité de produit administrée aux animaux est de 100 mg/kg.
En fin d'étude, on effectue sur tous les animaux des examens biochimiques (cholestérol total, cholesterol high density lipoprotein (HDL) et cholesterol low density lipoprotein (LDL), et triglycérides).
En fin d'étude, tous les animaux encore vivants sont sacrifiés, et l'on prélève divers organes dont particulièrement l'aorte, pour l'étude histologique de cette dernière. Deux critères sont étudiés : le nombre de zones athéromateuses et l'intensité des lésions.
Le calcul des cotations s'effectue de la façon suivante : • en ce qui concerne l'intensité des lésions, on effectue une cotation allant de 0 pour l'absence de lésion à […] pour les lésions les plus fortes, et ceci pour chaque type d'altération considéré (augmentation des espaces interlamellalres, interruption des lames élastiques, épaississement des lames élastiques, dépôt de calcium, dépôt de mucopolysaccharides); puis on fait l'addition de la totalité des résultats par lot d'animaux; • en ce qui concerne le nombre de zones athéromateuses, par comptage de ces dernières et addition de la totalité des chiffres obtenus par lot d'animaux.
On calcule ensuite le pourcentage de diminution par rapport aux témoins régime et le score, c'est-à-dire le rapport de l'intensité de l'activité du produit testé vis-à-vis de celle de l'activité du clofibrate, compté pour 1.
Le tableau IV donne les résultats détaillés des examens biochimiques : • a) en % de diminution par rapport au témoin régime; • b) en score, par rapport au produit de référence, le clofibrate, ce dernier étant compté pour 1.
Le tableau V donne le résultat des examens macroscopiques : • a) en % de diminution des animaux atteints de lésions; • b) en score par rapport au clofibrate de référence, dont le score est compté pour 1.
Le tableau VI donne les résultats microscopiques avec cotation histologique concernant l'intensité des lésions, et le nombre de zones athéromateuses.

[3] = Acute oral toxicity (lethal dose); type: in vivo; conditions: mouse, in vivo, po, oral, read-out: DL50 (the source's name) (converted)
Description: (§1) La toxioité aiguë est exprimée par la dose létale 50, c'est-à-dire la dose létale entraînant la mort de 50 % des animaux.
(§2) Cette étude a été effectuée sur des souris mâles et femelles auxquelles on a administré les produits à tester par voie orale à des concentrations différentes et on a mesuré la létalité sur dix souris mâles et sur 10 souris femelles.

souris mâles et femelles = assay: Acute oral toxicity (lethal dose); type: in vivo; conditions: for DL0 / DL100: oral
Description: as §1, §2

[4] = 250 mg/kg oral, ratio to clofibrate of the same series
[5] = macroscopic examination, 100 mg/kg for 4 weeks
[6] = 250 mg/kg oral, given with TRITON W.R. 200 mg/kg i.v., read-out: Cholestérol estérifié % (pourcentage de diminution par rapport au témoin TRITON)
[7] = 250 mg/kg oral, given with TRITON W.R. 200 mg/kg i.v., read-out: Cholestérol total % (pourcentage de diminution par rapport au témoin TRITON)
[8] = 250 mg/kg oral, given with TRITON W.R. 200 mg/kg i.v., read-out: Triglycérides % (pourcentage de diminution par rapport au témoin TRITON)
[9] = read-out: Lipides totaux % (pourcentage de diminution par rapport au témoin TRITON), 250 mg/kg oral, given with TRITON W.R. 200 mg/kg i.v.

In the case of `CCOC(=O)C(C)(C)Oc1ccc(Cl)cc1` [Clofibrate], the “Cholestérol estérifié Score (par rapport au clofibrate compté pour 1)” value (“Cholestérol estérifié Score” below) [1, 4] is reported as 1,00, the “Cholestérol total Score (par rapport au clofibrate compté pour 1)” value [1, 4] is reported as 1,00 and the “Lipides totaux Score (par rapport au clofibrate compté pour 1)” value (shortened to “Lipides totaux Score”) [1, 4] is reported as 1,00. The “Triglycérides Score (par rapport au clofibrate compté pour 1)” value [1, 4] was 1,00, the “CHOLESTEROL HDL Score (clofibrate compté pour 1)” value ([2]; 100 mg/kg for 4 weeks) was 1,00 and the “CHOLESTEROL LDL Score (clofibrate compté pour 1)” value ([2]; 100 mg/kg for 4 weeks) was 1,00. For the same molecule, the “CHOLESTEROL T Score (clofibrate compté pour 1)” value ([2]; 100 mg/kg for 4 weeks) was 1,00, the “TRIGLYCERIDES Score (clofibrate compté pour 1)” value ([2]; 100 mg/kg for 4 weeks) was 1,00 and the “ANIMAUX ATTEINTS %” value [2, 5] was 81,82%. For the same molecule, the “ANIMAUX ATTEINTS SCORE CLOFIBRATE” value [2, 5] was 1,00, the “NOMBRE DE ZONES ATHEROMATEUSES POUR 15 ANIMAUX Score Clofibrate” value ([2]; microscopic examination) was 1,00 and the “COTATION HISTOLOGIQUE Cotation” value ([2]; microscopic examination of the aorta, intensity of lesions, sum per group, 100 mg/kg for 4 weeks) was 49,10. The “NOMBRE DE ZONES ATHEROMATEUSES POUR 15 ANIMAUX Cotation” value ([2]; microscopic examination of the aorta, 100 mg/kg for 4 weeks) was 72,30 and the “COTATION HISTOLOGIQUE Score Clofibrate” value ([2]; microscopic examination, intensity of lesions) was 1,00.
In the case of `CCC(CO)NS(=O)(=O)c1cc(Cl)c([N+](=O)[O-])cc1OC` (centres unmarked) [compound 316], the “Cholestérol estérifié Score” value [1, 4] is reported as 0,63, the “Cholestérol total Score (par rapport au clofibrate compté pour 1)” value [1, 4] is reported as 1,17 and the “Lipides totaux Score” value [1, 4] is reported as 3,09. The inhibition in vivo at 250 mg/kg [1, 6] was 31.2%, the inhibition in vivo at 250 mg/kg [1, 7] was 11.1% and the inhibition in vivo at 250 mg/kg [1, 8] was 0%. It also gave an inhibition in vivo at 250 mg/kg [1, 9] of 42.6%, an LD50 ([3]; Souris femelles) of over 15000 mg/kg and an LD50 ([3]; Souris mâles) of 18500 mg/kg. The DL0 (souris mâles et femelles; Souris femelles) was ≥ 15 000 mg/kg, the DL100 (souris mâles et femelles; Souris femelles) was > 15 000 mg/kg and the DL0 (souris mâles et femelles; Souris mâles) was 15 000 mg/kg. For the same molecule, the DL100 (souris mâles et femelles; Souris mâles) was > 20 000 mg/kg and the “toxicité par voie digestive” value (souris mâles et femelles; conclusion in words from all results) was “pratiquement dénué de toxicité par voie digestive”.
In the case of `COc1ccc([N+](=O)[O-])cc1S(=O)(=O)N(C)CCO` [compound 327], the “Lipides totaux Score” value [1, 4] is reported as 0,53, the inhibition in vivo at 250 mg/kg [1, 6] is reported as 0% and the inhibition in vivo at 250 mg/kg [1, 7] is reported as 0%. For the same molecule, the inhibition in vivo at 250 mg/kg [1, 8] was 9% and the inhibition in vivo at 250 mg/kg [1, 9] was 23.6%.
With `COc1ccc(N)cc1S(=O)(=O)N(C)CCO` [compound 328] the “Lipides totaux Score” value [1, 4] was 0,46, the inhibition in vivo at 250 mg/kg [1, 6] was 0% and the inhibition in vivo at 250 mg/kg [1, 7] was 0%. For the same molecule, the inhibition in vivo at 250 mg/kg [1, 8] was 0% and the inhibition in vivo at 250 mg/kg [1, 9] was 20.7%.
In the case of `COc1cc([N+](=O)[O-])c(Cl)cc1S(=O)(=O)N(C)CCO` [compound 329], the “Lipides totaux Score” value [1, 4] is reported as 0,84, the inhibition in vivo at 250 mg/kg [1, 6] is reported as 0% and the inhibition in vivo at 250 mg/kg [1, 7] is reported as 0%. The inhibition in vivo at 250 mg/kg [1, 8] was 40% and the inhibition in vivo at 250 mg/kg [1, 9] was 37.6%.
For `COc1cc(N)c(Cl)cc1S(=O)(=O)N(C)CCO` [compound 330], the “Cholestérol estérifié Score” value [1, 4] was 0,96, the inhibition in vivo at 250 mg/kg [1, 6] was 41.9% and the inhibition in vivo at 250 mg/kg [1, 7] was 0%. For the same molecule, the inhibition in vivo at 250 mg/kg [1, 8] was 0%.

Source: patent EP0081425B1, “Pharmaceutical compositions having normolipemic properties and containing compounds of the n-substituted benzenesulfonamide type” (priority 1981, dated 1983)
